Measurements from US20250215030A1, “STAT MODULATORS AND USES THEREOF” (Recludix Pharma, Inc., priority 2022, published 2025).

Assays:
[1] = molecular target: T1, Recombinant STAT3 protein (STAT3(G127-I722)) (Homo sapiens, UniProt P40763); assay: STAT3 Fluorescence Polarization (FP) Assay; format: binding; details: STAT3(G127-I722) 25 nM, probe 5-FAM-GpYLPQTV-NH2 2 nM, 45-minute incubation
T1 construct: STAT3(G127-I722)
Procedure, shortened: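 Serially diluted compounds (1% DMSO) were mixed with 2 nM fluorescent phosphotyrosine peptide and 25 nM STAT3 construct G127-I722, pH 7.4, incubated 45 min at room temperature. IC50 values from fitted polarization curves are reported as categories A (≤100 nM), B, C, D (>10 μM).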

[2] = molecular target: T2, Recombinant STAT6 protein (STAT6(W123-T658)) (Homo sapiens, UniProt P42226); assay: STAT6 Fluorescence Polarization (FP) Assay; format: binding; details: STAT6(W123-T658) 250 nM, probe 5-FAM-ApYKPFQDLI-NH2 2 nM, 45-minute incubation
T2 construct: STAT6(W123-T658)
T2 sequence (P42226 123-658): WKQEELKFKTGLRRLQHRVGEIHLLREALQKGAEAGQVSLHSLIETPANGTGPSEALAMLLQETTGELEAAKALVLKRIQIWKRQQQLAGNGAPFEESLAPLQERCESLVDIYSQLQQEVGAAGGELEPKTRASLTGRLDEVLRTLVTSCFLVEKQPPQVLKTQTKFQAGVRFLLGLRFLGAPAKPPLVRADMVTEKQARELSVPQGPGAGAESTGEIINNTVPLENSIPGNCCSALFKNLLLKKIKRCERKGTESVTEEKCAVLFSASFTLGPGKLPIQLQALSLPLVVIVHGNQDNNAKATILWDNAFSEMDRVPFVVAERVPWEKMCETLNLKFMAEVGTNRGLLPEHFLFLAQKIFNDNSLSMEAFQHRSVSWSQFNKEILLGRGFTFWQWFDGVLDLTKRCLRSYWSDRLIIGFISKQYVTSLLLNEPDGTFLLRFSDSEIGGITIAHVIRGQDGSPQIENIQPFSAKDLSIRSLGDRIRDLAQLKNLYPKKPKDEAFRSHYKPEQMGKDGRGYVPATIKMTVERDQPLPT
Procedure, shortened: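 Competitive displacement of a fluorescent phosphotyrosine peptide (2 nM) from recombinant STAT6 W123-T658 (250 nM), 45 min at room temperature in 10 mM HEPES pH 7.4, 50 mM NaCl, 2 mM DTT. mP fitted against log compound for IC50, grouped A (≤300 nM) to D (>30 μM).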

T1 sequence (P40763 127-722, species assumed): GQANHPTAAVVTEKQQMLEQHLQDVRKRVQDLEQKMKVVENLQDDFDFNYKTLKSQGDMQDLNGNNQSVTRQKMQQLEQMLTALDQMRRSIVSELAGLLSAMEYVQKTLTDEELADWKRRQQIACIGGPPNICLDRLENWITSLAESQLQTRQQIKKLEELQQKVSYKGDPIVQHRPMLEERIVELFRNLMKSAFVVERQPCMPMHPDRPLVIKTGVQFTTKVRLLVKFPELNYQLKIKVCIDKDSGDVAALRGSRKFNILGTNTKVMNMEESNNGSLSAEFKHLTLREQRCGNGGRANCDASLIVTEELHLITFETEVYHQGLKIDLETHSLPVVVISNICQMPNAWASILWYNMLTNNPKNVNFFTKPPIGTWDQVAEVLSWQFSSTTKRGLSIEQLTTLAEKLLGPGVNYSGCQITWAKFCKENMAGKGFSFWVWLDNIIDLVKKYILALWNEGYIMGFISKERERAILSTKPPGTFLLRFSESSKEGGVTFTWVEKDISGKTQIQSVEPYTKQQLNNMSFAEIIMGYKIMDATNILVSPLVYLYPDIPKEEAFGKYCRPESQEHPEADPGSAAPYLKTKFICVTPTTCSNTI

IC50 [1]	IC50 [2]	Structure (SMILES)
> 10 µM	> 30 µM	O=C(N[C@H]1C[C@@H]2C[C@@H]2C[C@H]2CC[C@@H](C(=O)N[C@H]3CN(c4cncnc4)C[C@@H]3F)N2C1=O)c1cc2cc(CP(=O)(O)O)ccc2s1 [Example 279, ((2-(((3S,6S,7aS,8aR,9aR)-3-(((3S,4S)-4-fluoro-1-(pyrimidin-5-yl)pyrrolidin-3-yl)carbamoyl)-5-oxodecahydro-1H-cyclopropa[d]pyrrolo[1,2-a]azocin-6-yl)carbamoyl)benzo[b]thiophen-5-yl)methyl)phosphonic acid]
< 0.1 µM	3 to 30 µM	Cc1ccncc1C1CN(C(=O)[C@@H]2CC[C@@H]3C[C@H]4C[C@H]4C[C@H](NC(=O)c4cc5cc(C(F)P(=O)(O)O)ccc5s4)C(=O)N32)C1 (stereo partly drawn) [Example 280, (fluoro(2-(((3S,6S,7aS,8aR,9aR)-3-(3-(4-methylpyridin-3-yl)azetidine-1-carbonyl)-5-oxodecahydro-1H-cyclopropa[d]pyrrolo[1,2-a]azocin-6-yl)carbamoyl)benzo[b]thiophen-5-yl)methyl)phosphonic acid]
< 0.1 µM	3 to 30 µM	Cn1cc(C2CN(C(=O)[C@@H]3CC[C@@H]4C[C@H]5C[C@H]5C[C@H](NC(=O)c5cc6cc(C(F)(F)P(=O)(O)O)ccc6s5)C(=O)N43)C2)cn1 [Example 282, (difluoro(2-(((3S,6S,7aS,8aR,9aR)-3-(3-(1-methyl-1H-pyrazol-4-yl)azetidine-1-carbonyl)-5-oxodecahydro-1H-cyclopropa[d]pyrrolo[1,2-a]azocin-6-yl)carbamoyl)benzo[b]thiophen-5-yl)methyl)phosphonic acid]
< 0.1 µM	3 to 30 µM	O=C(N[C@H]1C[C@@H]2C[C@@H]2C[C@H]2CC[C@@H](C(=O)N3CC(c4nccs4)C3)N2C1=O)c1cc2cc(C(F)(F)P(=O)(O)O)ccc2s1 [Example 286, (difluoro(2-(((3S,6S,7aS,8aR,9aR)-5-oxo-3-(3-(thiazol-2-yl)azetidine-1-carbonyl)decahydro-1H-cyclopropa[d]pyrrolo[1,2-a]azocin-6-yl)carbamoyl)benzo[b]thiophen-5-yl)methyl)phosphonic acid]
< 0.1 µM	3 to 30 µM	O=C(N[C@H]1C[C@@H]2C[C@@H]2C[C@H]2CC[C@@H](C(=O)N3CC(c4cn[nH]c4)C3)N2C1=O)c1cc2cc(C(F)(F)P(=O)(O)O)ccc2s1 [Example 288, ((2-(((3S,6S,7aS,8aR,9aR)-3-(3-(1H-pyrazol-4-yl)azetidine-1-carbonyl)-5-oxodecahydro-1H-cyclopropa[d]pyrrolo[1,2-a]azocin-6-yl)carbamoyl)benzo[b]thiophen-5-yl)difluoromethyl)phosphonic acid]
0.1 to 1 µM	3 to 30 µM	CC(=O)N1CC[C@@H]2[C@H]1CN2C(=O)[C@@H]1CC[C@@H]2C[C@H]3C[C@H]3C[C@H](NC(=O)c3cc4cc(C(F)P(=O)(O)O)ccc4s3)C(=O)N21 (stereo partly drawn) [Example 290, ((2-(((3S,6S,7aS,8aR,9aR)-3-((1R,5R)-2-acetyl-2,6-diazabicyclo[3.2.0]heptane-6-carbonyl)-5-oxodecahydro-1H-cyclopropa[d]pyrrolo[1,2-a]azocin-6-yl)carbamoyl)benzo[b]thiophen-5-yl)fluoromethyl)phosphonic acid]
< 0.1 µM	0.3 to 3 µM	O=C(N[C@H]1C[C@H]2C[C@H]2C[C@H]2CC[C@@H](C(=O)N3CC(c4cnccc4O)C3)N2C1=O)c1cc2cc(C(F)P(=O)(O)O)ccc2s1 (stereo partly drawn) [Example 293, (fluoro(2-(((3S,6S,7aR,8aS,9aR)-3-(3-(4-hydroxypyridin-3-yl)azetidine-1-carbonyl)-5-oxodecahydro-1H-cyclopropa[d]pyrrolo[1,2-a]azocin-6-yl)carbamoyl)benzo[b]thiophen-5-yl)methyl)phosphonic acid]
< 0.1 µM	3 to 30 µM	O=C(N[C@H]1C[C@H]2C[C@H]2C[C@H]2CC[C@@H](C(=O)N3CC(c4cnccc4O)C3)N2C1=O)c1cc2cc(CP(=O)(O)O)ccc2s1 [Example 294, ((2-(((3S,6S,7aR,8aS,9aR)-3-(3-(4-hydroxypyridin-3-yl)azetidine-1-carbonyl)-5-oxodecahydro-1H-cyclopropa[d]pyrrolo[1,2-a]azocin-6-yl)carbamoyl)benzo[b]thiophen-5-yl)methyl)phosphonic acid]
< 0.1 µM	0.3 to 3 µM	O=C(N[C@H]1C[C@@H]2C[C@@H]2C[C@H]2CC[C@@H](C(=O)N3C[C@H]4[C@@H]3CCN4c3cccnc3)N2C1=O)c1cc2cc(C(F)P(=O)(O)O)ccc2s1 (stereo partly drawn) [Example 295, (fluoro(2-(((3S,6S,7aS,8aR,9aR)-5-oxo-3-((1S,5S)-2-(pyridin-3-yl)-2,6-diazabicyclo[3.2.0]heptane-6-carbonyl)decahydro-1H-cyclopropa[d]pyrrolo[1,2-a]azocin-6-yl)carbamoyl)benzo[b]thiophen-5-yl)methyl)phosphonic acid]
< 0.1 µM	0.3 to 3 µM	O=C(N[C@H]1C[C@@H]2C[C@@H]2C[C@H]2CC[C@@H](C(=O)N3C[C@@H]4[C@H]3CCN4c3cccnc3)N2C1=O)c1cc2cc(C(F)P(=O)(O)O)ccc2s1 (stereo partly drawn) [Example 296, (fluoro(2-(((3S,6S,7aS,8aR,9aR)-5-oxo-3-((1R,5R)-2-(pyridin-3-yl)-2,6-diazabicyclo[3.2.0]heptane-6-carbonyl)decahydro-1H-cyclopropa[d]pyrrolo[1,2-a]azocin-6-yl)carbamoyl)benzo[b]thiophen-5-yl)methyl)phosphonic acid]
< 0.1 µM	0.3 to 3 µM	O=C(N[C@H]1C[C@@H]2C[C@@H]2C[C@H]2CC[C@@H](C(=O)N3CC(c4ccon4)C3)N2C1=O)c1cc2cc(C(F)(F)P(=O)(O)O)ccc2s1 [Example 299, (difluoro(2-(((3S,6S,7aS,8aR,9aR)-3-(3-(isoxazol-3-yl)azetidine-1-carbonyl)-5-oxodecahydro-1H-cyclopropa[d]pyrrolo[1,2-a]azocin-6-yl)carbamoyl)benzo[b]thiophen-5-yl)methyl)phosphonic acid]
< 0.1 µM	0.3 to 3 µM	O=C(N[C@H]1C[C@@H]2C[C@@H]2C[C@H]2CC[C@@H](C(=O)N3CC(c4ncco4)C3)N2C1=O)c1cc2cc(C(F)(F)P(=O)(O)O)ccc2s1 [Example 300, (difluoro(2-(((3S,6S,7aS,8aR,9aR)-3-(3-(oxazol-2-yl)azetidine-1-carbonyl)-5-oxodecahydro-1H-cyclopropa[d]pyrrolo[1,2-a]azocin-6-yl)carbamoyl)benzo[b]thiophen-5-yl)methyl)phosphonic acid]
0.1 to 1 µM	3 to 30 µM	O=C(N[C@H]1C[C@@H]2C[C@@H]2C[C@H]2CC[C@@H](C(=O)N3CC(N4CCS(=O)(=O)CC4)C3)N2C1=O)c1cc2cc(C(F)P(=O)(O)O)ccc2s1 (stereo partly drawn) [Example 301, ((2-(((3S,6S,7aS,8aR,9aR)-3-(3-(1,1-dioxidothiomorpholino)azetidine-1-carbonyl)-5-oxodecahydro-1H-cyclopropa[d]pyrrolo[1,2-a]azocin-6-yl)carbamoyl)benzo[b]thiophen-5-yl)fluoromethyl)phosphonic acid]
0.1 to 1 µM	3 to 30 µM	O=C(N[C@H]1C[C@H]2C[C@H]2C[C@H]2CC[C@@H](C(=O)N3CC(N4CCS(=O)(=O)CC4)C3)N2C1=O)c1cc2cc(C(F)P(=O)(O)O)ccc2s1 (stereo partly shown) [Example 302]
< 0.1 µM	0.3 to 3 µM	O=C(N[C@H]1C[C@@H]2C[C@@H]2C[C@H]2CC[C@@H](C(=O)N3CC(c4cnccc4F)C3)N2C1=O)c1cc2cc(C(F)(F)P(=O)(O)O)ccc2s1 [Example 303, (difluoro(2-(((3S,6S,7aS,8aR,9aR)-3-(3-(4-fluoropyridin-3-yl)azetidine-1-carbonyl)-5-oxodecahydro-1H-cyclopropa[d]pyrrolo[1,2-a]azocin-6-yl)carbamoyl)benzo[b]thiophen-5-yl)methyl)phosphonic acid]
< 0.1 µM	3 to 30 µM	Cn1cnnc1C1CN(C(=O)[C@@H]2CC[C@@H]3C[C@H]4C[C@H]4C[C@H](NC(=O)c4cc5cc(C(F)P(=O)(O)O)ccc5s4)C(=O)N32)C1 (stereo partly drawn) [Example 304, (fluoro(2-(((3S,6S,7aS,8aR,9aR)-3-(3-(4-methyl-4H-1,2,4-triazol-3-yl)azetidine-1-carbonyl)-5-oxodecahydro-1H-cyclopropa[d]pyrrolo[1,2-a]azocin-6-yl)carbamoyl)benzo[b]thiophen-5-yl)methyl)phosphonic acid]
0.1 to 1 µM	3 to 30 µM	O=C(N[C@H]1C[C@@H]2C[C@@H]2C[C@H]2CC[C@@H](C(=O)N3CC(c4ncccn4)C3)N2C1=O)c1cc2cc(C(F)P(=O)(O)O)ccc2s1 (stereo partly drawn) [Example 305, (fluoro(2-(((3S,6S,7aS,8aR,9aR)-5-oxo-3-(3-(pyrimidin-2-yl)azetidine-1-carbonyl)decahydro-1H-cyclopropa[d]pyrrolo[1,2-a]azocin-6-yl)carbamoyl)benzo[b]thiophen-5-yl)methyl)phosphonic acid]
